Converted amounts (≈) assume the structure as drawn.
What was measured:
ADC-172 = ADC-172 (Acinetobacter baumannii, UniProt A7Y407, N321K); assay: Competition kinetics with nitrocefin (Ki), ADC-172; type: biochemical; details: 3 min pre-incubation, Cheng-Prusoff corrected
Method: (§1) For inhibition kinetics, utilizing NCF as a colorimetric substrate of ADCs, the inhibition constant (Ki) of CAZ and FDC with ADCs was determined using competition kinetics as previously described ([5]). After a 3 min pre-incubation of the enzyme (2 nM) with increasing concentration of the inhibitor, measurements of the initial velocities were performed with the addition of 100–200 µM NCF (twofold of the experimentally determined KM value). To determine the average velocities (v0), data from three experiments were fit to the followingequation: […]
(§2) where vu represents the NCF uninhibited velocity and IC50 represents the inhibitor concentration that results in a 50% reduction of vu. The Ki value was corrected for the NCF affinity (KM values for each ADC) with the Cheng-Prusoff ([5]) equation: […]
(§3) The standard error for Ki values was generated by factoring in the larger of the proportional standard errors for the individual IC50 value and the KM -NCF value.

ADC-7 = ADC-7 (Acinetobacter baumannii, UniProt Q6DRA1); assay: Competition kinetics with nitrocefin (Ki), ADC-7; type: biochemical; details: 3 min pre-incubation, Cheng-Prusoff corrected
Method: as §1, §2, §3

ADC-33 [1] = molecular target: T1, ADC-33 (Acinetobacter baumannii, UniProt A7Y407); assay: Thermal denaturation by circular dichroism, ADC-33; type: binding; details: ADC-33 12 µM, 1 mM antibiotic, PBS pH 7.4
Method: For thermal denaturation, protein samples were monitored for helical content by circular dichroism in the far-UV region at 210 and 220 nm using a Jasco J-815 spectrometer (Easton, MD) with a Peltier-effect temperature controller, as previously described ([41]). Enzyme concentrations were 12 µM in phosphate-buffered saline (PBS) pH 7.4. The thermodynamic stability of apoADC-30 and ADC-33, and with 1 mM FDC and CAZ, was determined from equilibrium unfolding curves. With the assumption of a reversible two-state transition, we determined the Tm at the midpoint of equilibrium folding. Thermal denaturation experiments were done in duplicate under the same conditions, with each data point representing the average of three successive scans, and the Tm values are consistent with ±1°C variation.

ADC-30 [2] = molecular target: T2, ADC-30 (Acinetobacter baumannii, UniProt A7XM81); assay: Timed electrospray ionization mass spectrometry of acylated adducts, ADC-30; type: binding; details: ADC-30, +468 Da adduct, at 1 h; enzyme:substrate 1:25
Method: β-Lactamase (5 µg) was incubated with substrate at a molar ratio of 1:25 (FDC, CAZ, meropenem [MEM]) in sterile 10 mM PBS, pH 7.4, for a total reaction volume of 20 µL (t = 30 s, 1 min, 15 min, 30 min, 1 h, 2 h, and 24 h). Reactions were quenched with 1% acetonitrile and 0.1% formic acid. Samples were analyzed using Q-TOF Waters Synapt-G2-Si and a Waters Acquity ultrapressure liquid chromatography BEH C18 column (1.7 µm […]; 2.1 × 50 mm). MassLynx v.4.1 was used to deconvolute protein peaks. The tune settings for each data run were as follows: capillary voltage at 3.5 kV, sampling cone at 35, source offset at 35, source temperature 100°C, desolvation temperature 500°C, cone gas at 100 L/h, desolvation gas at 800 L/h, and nebulizer bar at 6.0. Mobile phase A was 0.1% formic acid-water. Mobile phase B was 0.1% formic acid-acetonitrile. The mass accuracy for this system is ±5 Da. Mass spectrometry experiments were performed once over a range of time points.

[3] = test system: ADC-219 in DH10B Escherichia coli; assay: MIC by broth microdilution, ADC-219 in DH10B E. coli; type: cell-based; details: DH10B E. coli expressing ADC-219 (Adup) from pBCSK−, FDC in iron-depleted cation-adjusted MH broth, mode of triplicate
Method: (§4) Susceptibility testing to standard antibiotics was performed by broth microdilution according to 2024 Clinical and Laboratory Standards Institute (CLSI) guidelines ([38]). MICs for FDC were done in iron-depleted cation-adjusted Mueller-Hinton (MH) broth according to CLSI methods. All MICs were interpreted according to the 2024 CLSI guidelines ([38]). MICs are done in triplicate, and the mode MIC value is reported.
(§5) blaADC-7 pBCSK− was cloned and expressed in E. coli DH10B cells as previously described for MIC determinations ([3]). The pBCSK-non-inducible phagemid vector has a chloramphenicol resistance gene used to aid selection. All other blaADC variants were synthesized by GenScript according to the blaADC-7 pBCSK− strategy, cloning into the XbaI/BamHI sites of the pBCSK− vector ([5]).

ADC-73 = ADC-73 (Acinetobacter baumannii, UniProt A0A059ZDI2); assay: Competition kinetics with nitrocefin (Ki), ADC-73; type: biochemical; details: 3 min pre-incubation, Cheng-Prusoff corrected
Method: as §1, §2, §3

[4] = test system: ADC-217 in DH10B Escherichia coli; assay: MIC by broth microdilution, ADC-217 in DH10B E. coli; type: cell-based; details: DH10B E. coli expressing ADC-217 (non-Adup) from pBCSK−, FDC in iron-depleted cation-adjusted MH broth, mode of triplicate
Method: as §4, §5

[5] = test system: ADC-218 in DH10B Escherichia coli; assay: MIC by broth microdilution, ADC-218 in DH10B E. coli; type: cell-based; details: DH10B E. coli expressing ADC-218 (Adup) from pBCSK−, FDC in iron-depleted cation-adjusted MH broth, mode of triplicate
Method: as §4, §5

[6] = test system: ADC-30 in DH10B Escherichia coli; assay: MIC by broth microdilution, ADC-30 in DH10B E. coli; type: cell-based; details: DH10B E. coli expressing ADC-30 (non-Adup) from pBCSK−, FDC in iron-depleted cation-adjusted MH broth, mode of triplicate
Method: as §4, §5

ADC-30 [7] = molecular target: T2, ADC-30; assay: Competition kinetics with nitrocefin (Ki), ADC-30; type: biochemical; details: 3 min pre-incubation, Cheng-Prusoff corrected
Method: as §1, §2, §3

[8] = test system: ADC variants in DH10B Escherichia coli; assay: MIC, statements across ADC variants in E. coli; type: cell-based
Method: as §4, §5

[9] = test system: ADC-172 in DH10B Escherichia coli; assay: MIC by broth microdilution, ADC-172 in DH10B E. coli; type: cell-based; details: Escherichia coli; DH10B E. coli expressing ADC-172 (Adup) from pBCSK−; FDC in iron-depleted cation-adjusted MH broth; mode of triplicate; read-out: MIC
Method: as §4, §5

ADC-33 [10] = molecular target: T1, ADC-33; assay: Competition kinetics with nitrocefin (Ki), ADC-33; type: biochemical; details: 3 min pre-incubation, Cheng-Prusoff corrected
Method: as §1, §2, §3

CC(C)(O/N=C(\C(=O)N[C@@H]1C(=O)N2C(C(=O)[O-])=C(C[n+]3ccccc3)CS[C@H]12)c1csc(N)n1)C(=O)O [CAZ, ceftazidime]
Ki (ADC-172): 12.7 ± 1.45 µM
Ki (ADC-7): 2.1 ± 0.25 µM
change of Tm of the β-lactamase on addition of antibiotic (ADC-33 [1]): does not alter the Tm
percentage of acylated adduct (ADC-30 [2]): 20%
MIC [3]: 64 µg/mL (≈ 117 µM)
Ki (ADC-73): 8.72 ± 0.74 µM
MIC [4]: 128 µg/mL (≈ 234 µM)
MIC [5]: 2050 µg/mL (≈ 3750 µM)
MIC [6]: 64 µg/mL (≈ 117 µM)
Ki (ADC-30 [7]): 3.23 ± 0.31 µM
MIC [8]: ≥ 1020 µg/mL
MIC [9]: 1020 µg/mL (≈ 1870 µM)
Ki (ADC-33 [10]): 28.4 ± 2.09 µM

Reference: PMC12153338, “Resistance to oxyimino-cephalosporins conferred by an alternative mechanism of hydrolysis by the Acinetobacter-derived cephalosporinase-33 (ADC-33), a class C β-lactamase present in carbapenem-resistant Acinetobacter baumannii (CRAb)” (mBio, 2025)
